Test results from US20180361032A1, “IMPLANTABLE ELECTROSPUN PATCHES FOR SITE-DIRECTED DRUG DELIVERY” (The Methodist Hospital, priority 2016, published 2018).

Test system: inflammation induced by the implant
Assay: Expression of inflammation-related genes in sciatic nerve and surrounding muscle tissue after implant
Assay type: in vivo, rodent
Conditions: release of bupivacaine from the implant
From the text: FIG. 13A, FIG. 13B, FIG. 13C, FIG. 13D, and FIG. 13E show the expression of genes related to inflammation in sciatic nerve tissue: TNF-α (FIG. 13A); IL-1β (FIG. 13B); IL-6 (FIG. 13C); PTGS2 (COX-2) (FIG. 13D); and NOS2 (FIG. 13E); respectively; FIG. 14A, FIG. 14B, FIG. 14C, FIG. 14D, and FIG. 14E show the expression of genes related to inflammation in surrounding muscle tissue: COX-2 expression (FIG. 14A); IL-6 expression (FIG. 14B); TNF-α expression (FIG. 14C); IL-1β expression (FIG. 14D); and iNOS expression (FIG. 14E);

CCCCN1CCCCC1C(=O)Nc1c(C)cccc1C (stereo not shown) [bupivacaine]
inflammation induced by the implant: decreased the inflammation induced by the implant
